Assays:
[1] = test system: COX-2; parameters: method as in PMID 18598017; conditions: in vitro; cited from earlier work
[2] = parameters: method as in PMID 18598017; conditions: previous study; cited from earlier work
[3] = target: T1, COX-2 (Mus musculus, UniProt Q05769); experiment: PET kinetic study in healthy mice; assay type: in vivo, CD-1 mice
T1 construct: from tissue; host or cells: organs of living mice (PET in healthy CD-1 mice)
T1 sequence (Q05769 18-604): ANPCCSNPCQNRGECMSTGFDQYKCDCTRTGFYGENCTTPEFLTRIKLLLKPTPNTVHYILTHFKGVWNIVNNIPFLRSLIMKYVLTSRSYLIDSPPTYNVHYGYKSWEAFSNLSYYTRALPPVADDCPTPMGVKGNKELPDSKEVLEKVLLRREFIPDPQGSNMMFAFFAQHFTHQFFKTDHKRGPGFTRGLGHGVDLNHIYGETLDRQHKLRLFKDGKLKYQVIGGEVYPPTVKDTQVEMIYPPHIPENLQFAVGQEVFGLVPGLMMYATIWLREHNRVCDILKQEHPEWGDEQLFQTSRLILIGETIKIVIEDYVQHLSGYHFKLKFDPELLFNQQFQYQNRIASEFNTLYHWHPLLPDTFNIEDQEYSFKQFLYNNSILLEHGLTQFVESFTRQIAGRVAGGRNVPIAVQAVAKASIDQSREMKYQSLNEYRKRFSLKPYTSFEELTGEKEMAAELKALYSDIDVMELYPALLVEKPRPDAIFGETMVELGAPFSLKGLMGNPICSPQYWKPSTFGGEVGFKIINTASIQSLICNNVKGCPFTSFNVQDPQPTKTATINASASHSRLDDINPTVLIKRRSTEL
Method: Two CD-1 mice were anaesthetized with a mixture of 4% isoflurane in air for the imaging with the YAP-(S)PET system (ISE Srl). Each mouse was placed in a prone position on the PET scanner bed with the abdomen centred in the field of view (FOV). Five minutes before the intravenous injection of ^11C-VA426, one mouse was pretreated with the COX-2 specific inhibitor celecoxib (10 mg/kg, i.v.) in vehicle (100 μl of DMSO, mouse 1) and the other with vehicle alone (mouse 2). Mouse 1 was then injected intravenously with 1.85 MBq of ^11C-VA426 and mouse 2 with 3.7 MBq, and dynamic PET data were acquired for 30 minutes, according to the following schedule: four scans of 2.5 minutes followed by four of 5 minutes. PET data were acquired in list mode, using the full axial acceptance angle of the scanner (3D mode) and then reconstructed with the expectation maximization (EM) algorithm. All images were calibrated with a dedicated phantom, corrected for the radionuclide half-life decay, and quantified as ID/g.

[4] = target: T2, COX-2 (Rattus norvegicus, UniProt P35355); experiment: Biodistribution kinetic profile in brain inflammation (intrastriatal LPS) rat model; assay type: in vivo, Sprague Dawley rats; conditions: rats
T2 construct: from tissue; host or cells: peripheral organs and brain regions of Sprague Dawley rats (in vivo / ex vivo biodistribution)
T2 sequence (P35355 18-604): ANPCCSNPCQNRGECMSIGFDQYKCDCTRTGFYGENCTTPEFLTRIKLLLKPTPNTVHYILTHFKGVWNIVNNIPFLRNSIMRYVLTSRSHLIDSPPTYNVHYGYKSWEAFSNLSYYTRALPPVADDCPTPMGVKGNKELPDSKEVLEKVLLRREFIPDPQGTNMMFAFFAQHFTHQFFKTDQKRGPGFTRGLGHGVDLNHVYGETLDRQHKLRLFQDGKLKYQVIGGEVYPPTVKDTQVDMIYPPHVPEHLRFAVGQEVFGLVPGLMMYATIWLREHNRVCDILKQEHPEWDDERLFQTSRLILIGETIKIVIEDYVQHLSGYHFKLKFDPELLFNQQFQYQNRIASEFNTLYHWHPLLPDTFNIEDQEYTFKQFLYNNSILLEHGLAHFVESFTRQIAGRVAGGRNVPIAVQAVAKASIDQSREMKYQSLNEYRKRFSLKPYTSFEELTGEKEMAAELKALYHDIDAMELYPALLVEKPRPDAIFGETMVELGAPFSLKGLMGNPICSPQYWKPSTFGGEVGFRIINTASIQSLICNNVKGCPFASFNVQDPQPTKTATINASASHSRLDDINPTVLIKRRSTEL
Method: In order to trigger nigrostriatal inflammation, eighteen SD rats were anesthetized (zoletil, 25 mg/kg, i.p.) and stereotaxically injected into the right striatum with 3 μL (3.33 μg/μl) of lipopolysaccharide (LPS, Sigma-Aldrich, Italy) and in the contralateral hemisphere with saline (negative control) at the following coordinates: A = +0.5, L = ±3.0, and V = –5.0 mm. One day after LPS injection, the first experimental group (n = 9) was injected through the tail vein with 9.25 ± 2.2 MBq of ^11C-VA426, and three rats per time point (10, 30, and 60 minutes) were euthanized under general anaesthesia, with a mixture of 4% isoflurane in air. Central and peripheral samples were dissected as described above and counted, following the protocol described for the biodistribution kinetic study. Twelve days after LPS injection, the second group of animals (n = 9) underwent the same protocol. Radioactivity concentration in samples was calculated as %ID/g.

[5] = Ex vivo biodistribution kinetic profile in healthy rats; parameters: species or system Sprague Dawley rats
Method: Nine SD rats were injected through the tail vein with 9.25 ± 2.5 MBq of ^11C-VA426 and euthanized under general anaesthesia, with a mixture of 4% isoflurane in air, at different time points (10, 30, and 60 minutes) from injection (n = 3 per time). Blood was collected by retro-orbital sampling immediately before the sacrifice. Plasma was separated by centrifugation, and 100 μL of blood and plasma were counted in a γ-counter (LKB Compugamma CS 1282). Peripheral organs (heart, lung, liver, intestine, kidney, testis, and muscle) and brain regions (frontal, right and left cortex, right and left striatum, hippocampus, thalamus, hypothalamus, pons, and cerebellum) were immediately removed and rinsed in cold saline solution. Each sample was then placed in a test tube and weighed, and the radioactivity was measured using a γ-counter (LKB Compugamma CS 1282). An additional aliquot (0.1 mL) of radioactive solution was diluted to 1 : 10, 1 : 100, and 1 : 1000 and used to calculate the standard curve. Radioactivity concentration was calculated as the percentage of injected dose per gram of tissue (%ID/g).

[6] = target: T2, COX-2; experiment: Specificity (celecoxib competition) study in healthy rats; assay type: in vivo, Sprague Dawley rats; conditions: 30 min p.i.
Method: In order to evaluate the radiotracer binding specificity to COX-2 in healthy rats, a competition study was performed. Two minutes before the intravenous injection of ^11C-VA426, four animals were pretreated with the COX-2 specific inhibitor celecoxib (Sigma-Aldrich, Italy) (10 mg/kg, i.v.) and four animals with vehicle solution alone (100 μl of DMSO, Sigma-Aldrich). All rats were then injected intravenously with 9.25 ± 2.7 MBq of ^11C-VA426 and sacrificed at the time of maximum uptake (30 minutes p.i.), previously assessed in the kinetic study. Central and peripheral samples were dissected as described above and counted, following the same protocol used for the biodistribution kinetic study. Radioactivity concentration in samples was calculated as %ID/g.

[7] = Ex vivo biodistribution kinetic profile in healthy mice; parameters: species or system CD-1 mice; conditions: i.v.
Method: Male CD-1 mice were injected through the tail vein with 5.3 ± 1.4 MBq of ^11C-VA426 and sacrificed after 10, 30, and 60 minutes (n = 3 per time point) under general anaesthesia with a mixture of 4% isoflurane in air. Blood was collected by retro-orbital sampling immediately before sacrifice. Plasma was separated by centrifugation, and 100 μL of blood and plasma were counted in a γ-counter (LKB Compugamma CS 1282). Different peripheral organs (heart, lung, liver, intestine, stomach, spleen, kidney, testis, and muscle) and brain regions (cortex, striatum, hippocampus, thalamus, hypothalamus, pons, substantia nigra, and cerebellum) were immediately sampled, rinsed with cold saline, and placed in preweighed tubes for counting. Radioactivity concentration was calculated as %ID/g.

[8] = target: T1, COX-2; experiment: Specificity evaluation in peripheral inflammation (i.p. LPS) mouse model; assay type: in vivo; conditions: LPS-treated mice, celecoxib 10 mg/kg i.v., 10 minutes p.i.
Method: Specificity evaluation studies of ^11C-VA426 were performed on a murine model of peripheral inflammation, after COX-2 specific inhibitor administration. Six hours before the study, six mice received intraperitoneal injection of lipopolysaccharide (10 mg/Kg), in order to promote peripheral inflammation response. Three of the LPS-treated mice were injected i.v. with 10 mg/kg of celecoxib, five minutes before the ^11C-VA426 injection, to carry out a competition assay for the COX-2 binding sites. All mice were sacrificed at the time of maximum uptake (10 minutes p.i.), previously assessed in healthy mice, after 3.9 ± 1.1 MBq injection of the radiotracer. Peripheral samples were dissected and counted, as well as for biodistribution studies. Radioactivity concentration in samples was calculated as %ID/g.

[9] = In vivo stability / radiometabolite analysis in healthy mice (HPLC); conditions: 10 minutes after injection
Method: Mice (n = 3) were injected through the tail vein with 3 ± 0.9 MBq of ^11C-VA426 and sacrificed 10 minutes later, under general anaesthesia. Blood was collected by retro-orbital sampling and processed to obtain plasma, as described above. Radioactive species contained in plasma were extracted by mixing an aliquot (500 μL) of plasma with CH3CN solution (1 : 1 v/v). Acetonitrile extracts were centrifuged and supernatant filtered with a MillexGX® syringe system for HPLC (Gilson Italia Srl, 321 pump, UV/VIS-151) injection. For metabolites analysis in liver, a sample was placed in a tissue homogenizer (Potter-Elvehjem) with 2 mL of saline, mechanically sheared until complete homogenization and subsequently treated as described for plasma. HPLC analyses were performed at room temperature using a C18, 250 × 10 mm, 5 μm column, CH3CN/AcONH4 0.05 M (60/40, v/v) as mobile phase, a flow rate of 4.5 mL/min, and UV = 254 nm. Eluted fractions were collected every 30 seconds, for a total of 14 minutes, and counted with a γ-counter (LKB Compugamma CS 1282).

[10] = celecoxib 10 mg/kg i.v. vs vehicle

## COCCc1cc(-c2ccc(S(C)(=O)=O)cc2)n(-c2ccc(F)cc2)c1C [VA426, 1-(4-fluorophenyl)-3-(2-methoxyethyl)-2-methyl-5-(4-(methylsulfonyl)phenyl)-1H-pyrrole]
[1]
  IC50: 18 nM
  Selectivity Index (IC50 COX-1/IC50 COX-2): > 5555
[2]
  toxic effects: without toxic effects

## Cc1c(CCO[11CH3])cc(-c2ccc(S(C)(=O)=O)cc2)n1-c1ccc(F)cc1 [^11C-VA426]
[3]; healthy mice, 0 to 30 minutes after injection
  PET radioactivity distribution: accumulates rapidly and primarily in the liver and kidneys
[3]; healthy mouse, celecoxib 10 mg/kg i.v., 10 and 30 minutes
  effect of celecoxib pretreatment on PET radioactivity distribution: slightly reduced radioactivity distribution in intestine regions
[4]; one day after LPS, 10, 30 and 60 minutes
  difference of concentration in striatum, lesioned hemisphere vs contralateral PBS-injected control: no significant differences
[4]; one day after intrastriatal LPS, 60 min p.i.
  tracer uptake in contralateral healthy cortex: 0.087 ± 0.012 %ID/g
[4]; twelve days after LPS injection
  difference between LPS-treated and healthy contralateral hemisphere, all regions: no differences were found
[5]; brain distribution data
  penetration through the BBB: good radioactivity penetration through the BBB
[5]; i.v.
  time of highest radioactivity concentration in brain: 10 min p.i.
[5]; i.v., 30 min p.i., n = 3
  radioactivity uptake in liver: 0.81 ± 0.28 %ID/g
[6]; [10]
  change of uptake in intestine after celecoxib pretreatment: −39%
  change of uptake in kidney after celecoxib pretreatment: −36%
  change of uptake in liver after celecoxib pretreatment: −65%
[6]; peripheral tissues and central areas
  difference of uptake between vehicle and celecoxib pretreated rats: no significant differences
[7]
  time of maximum radioactivity concentration in all brain regions: 10 minutes after tracer injection
  time of maximum uptake in liver: 10 minutes after injection
[7]; 10 minutes after injection
  maximum radioactivity concentration in pons: 2.69 ± 0.81 %ID/g
  maximum uptake in liver: 7.72 ± 2.52 %ID/g
[8]
  effect of celecoxib on tracer uptake (%ID/g) in all peripheral regions including plasma: dramatic reduction in tracer uptake
[9]; healthy mice
  first radioactive metabolite, fraction of total radioactivity in liver: 39.8%
  parent compound, fraction of total activity in liver: 34.9%
  parent compound, fraction of total activity in plasma: 47.1%
  radioactive metabolite (retention time 3 min), fraction of total radioactivity in plasma: 45.1%
  radioactive metabolite (retention time 5 min), fraction of total radioactivity in plasma: 6.6%
  second radioactive metabolite, fraction of total radioactivity in liver: 21.6%
  third radioactive metabolite (11.5 min of retention time), fraction of total radioactivity in liver: 3.3%
[9]; plasma and liver
  radioactivity due to radioactive metabolites: over 50%
